The experiment deals with BDF1 mice, s.c. Lewis lung carcinoma, T/C %. Nature of the experiment: NCI In Vivo Anticancer Drug Screen. Data for tumor model Lewis Lung Carcinoma (subcutaneous) in B6D2F1 (BDF1) mice. An outline of the steps: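 Readout: survival or tumor size, expressed as treated (T) over vehicle control (C). Transplantable tumor implanted in mice; compound given to the treated group.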

Setting [1] is: endpoint: median survival time, dose: 25.0 mg/kg/injection, schedule: Q01DX009 (ip), vehicle: Klucel (hydroxypropylcellulose) (HPC), higher = longer survival.
Where [2] appears, read: endpoint: median survival time, dose: 50.0 mg/kg/injection, schedule: Q01DX009 (ip), vehicle: Klucel (hydroxypropylcellulose) (HPC), higher = longer survival.
The mark [3] stands for this setting: endpoint: median survival time, dose: 100.0 mg/kg/injection, schedule: Q01DX009 (ip), vehicle: Klucel (hydroxypropylcellulose) (HPC), higher = longer survival.

“And” between values parts separate entries of the source, which are not always exact repeats. Identical values can stand only once. Results filed as inconclusive are left out.

Regarding `CCOc1ccccc1C1N(Cc2ccc(OC)cc2)CCCN1Cc1ccc(OC)cc1`, the T/C (endpoint: mean tumor weight, dose: 74.0 mg/kg/injection, schedule: Q01DX011 (ip), vehicle: other, higher = larger tumour) was 103 % of control; the T/C (endpoint: mean tumor weight, dose: 111.0 mg/kg/injection, schedule: Q01DX011 (ip), vehicle: other, higher = larger tumour) was 93 % of control; the T/C (endpoint: mean tumor weight, dose: 166.0 mg/kg/injection, schedule: Q01DX011 (ip), vehicle: other, higher = larger tumour) was 93 % of control.

In the case of `CC1(C)N=C(N)N=C(N)N1c1cccc(CC(=O)Nc2ccc(S(=O)(=O)F)cc2)c1`, the T/C was 100 % of control under setting [1]; 95 % of control under setting [2]; 98 % of control under setting [3]; 94 % of control (endpoint: median survival time, dose: 150.0 mg/kg/injection, schedule: Q01DX009 (ip), vehicle: Klucel (hydroxypropylcellulose) (HPC), higher = longer survival).

On to `NC(Cc1cc(Cl)c(O)c(Cl)c1)C(=O)O` (centres undefined), for which the T/C was 115 % of control (endpoint: median survival time, dose: 18.75 mg/kg/injection, schedule: Q01DX009 (ip), vehicle: saline, higher = longer survival); 117 % of control (endpoint: median survival time, dose: 37.5 mg/kg/injection, schedule: Q01DX009 (ip), vehicle: saline, higher = longer survival); 115 % of control (endpoint: median survival time, dose: 75.0 mg/kg/injection, schedule: Q01DX009 (ip), vehicle: saline, higher = longer survival).

On to `Nc1ncnc2c1ncn2C1OC(CO)CC1O` (centres undefined), for which the T/C runs as follows: (endpoint: mean tumor weight, dose: 37.0 mg/kg/injection, schedule: Q01DX011 (ip), vehicle: saline, higher = larger tumour) 101 % of control; (endpoint: mean tumor weight, dose: 75.0 mg/kg/injection, schedule: Q01DX011 (ip), vehicle: saline, higher = larger tumour) 86 % of control.

With `[O-][n+]1c(CCl)nc2cccc3c2c1-c1ccccc1-3`, the T/C (endpoint: median survival time, dose: 25.0 mg/kg/injection, schedule: Q01DX009 (ip), vehicle: saline with Tween-80, higher = longer survival) is 106 % of control and 111 % of control; the T/C (endpoint: median survival time, dose: 50.0 mg/kg/injection, schedule: Q01DX009 (ip), vehicle: saline with Tween-80, higher = longer survival) was 112 % of control and 118 % of control; the T/C (endpoint: median survival time, dose: 100.0 mg/kg/injection, schedule: Q01DX009 (ip), vehicle: saline with Tween-80, higher = longer survival) is 94 % of control.

Take `O=C(Nc1ccc(C2=NCCN2)cc1)c1cc(Cl)cc(C(=O)Nc2ccc(C3=NCCN3)cc2)c1`: the T/C reads like this: (endpoint: mean tumor weight, dose: 100.0 mg/kg/injection, schedule: Q01DX011 (ip), vehicle: saline, higher = larger tumour) 93 % of control; (endpoint: mean tumor weight, dose: 200.0 mg/kg/injection, schedule: Q01DX011 (ip), vehicle: saline, higher = larger tumour) 66 % of control; (endpoint: mean tumor weight, dose: 400.0 mg/kg/injection, schedule: Q01DX011 (ip), vehicle: saline, higher = larger tumour) 51 % of control; (endpoint: mean tumor weight, dose: 800.0 mg/kg/injection, schedule: Q01DX011 (ip), vehicle: saline, higher = larger tumour) 21 % of control.

For the molecule `NC(=O)c1ncn(C2OC(CO)C(O)C2O)n1` (centres undefined), the T/C was 100 % of control (endpoint: median survival time, dose: 20.0 mg/kg/injection, schedule: Q01DX009 (ip), vehicle: saline, higher = longer survival); 93 % of control and 107 % of control (endpoint: median survival time, dose: 40.0 mg/kg/injection, schedule: Q01DX009 (ip), vehicle: saline, higher = longer survival); 97 % of control and 107 % of control (endpoint: median survival time, dose: 80.0 mg/kg/injection, schedule: Q01DX009 (ip), vehicle: saline, higher = longer survival); 118 % of control (endpoint: median survival time, dose: 160.0 mg/kg/injection, schedule: Q01DX009 (ip), vehicle: saline, higher = longer survival).

With `CC(=O)CC(C)(C)N`, the T/C reads like this: (endpoint: mean tumor weight, dose: 15.0 mg/kg/injection, schedule: Q01DX011 (ip), vehicle: saline, higher = larger tumour) 118 % of control; (endpoint: mean tumor weight, dose: 33.0 mg/kg/injection, schedule: Q01DX011 (ip), vehicle: saline, higher = larger tumour) 101 % of control; (endpoint: mean tumor weight, dose: 50.0 mg/kg/injection, schedule: Q01DX011 (ip), vehicle: methylcellulose (MC), higher = larger tumour) 50 % of control; (endpoint: mean tumor weight, dose: 50.0 mg/kg/injection, schedule: Q01DX011 (ip), vehicle: saline, higher = larger tumour) 120 % of control; (endpoint: mean tumor weight, dose: 75.0 mg/kg/injection, schedule: Q01DX011 (ip), vehicle: methylcellulose (MC), higher = larger tumour) 91 % of control; (endpoint: mean tumor weight, dose: 100.0 mg/kg/injection, schedule: Q01DX011 (ip), vehicle: methylcellulose (MC), higher = larger tumour) 30 % of control.

For the molecule `Cc1cn(C2OC(CO)C(O)C2O)c(=O)[nH]c1=O` (centres undefined), the T/C was 94 % of control (endpoint: mean tumor weight, dose: 62.5 mg/kg/injection, schedule: Q01DX011 (ip), vehicle: saline, higher = larger tumour) and 109 % of control (endpoint: mean tumor weight, dose: 500.0 mg/kg/injection, schedule: Q01DX011 (ip), vehicle: saline, higher = larger tumour).

In the case of `O=c1c(O)c(-c2ccccc2)oc2ccccc12`, the T/C is, setting by setting: (endpoint: mean tumor weight, dose: 0.19 mg/kg/injection, schedule: Q01DX011 (ip), vehicle: saline, higher = larger tumour) 79 % of control; (endpoint: mean tumor weight, dose: 0.39 mg/kg/injection, schedule: Q01DX011 (ip), vehicle: saline, higher = larger tumour) 50 % of control; (endpoint: mean tumor weight, dose: 0.78 mg/kg/injection, schedule: Q01DX011 (ip), vehicle: saline, higher = larger tumour) 105 % of control; (endpoint: mean tumor weight, dose: 1.56 mg/kg/injection, schedule: Q01DX011 (ip), vehicle: saline, higher = larger tumour) 52 % of control and 58 % of control; (endpoint: mean tumor weight, dose: 3.13 mg/kg/injection, schedule: Q01DX011 (ip), vehicle: saline, higher = larger tumour) 78 % of control; (endpoint: mean tumor weight, dose: 6.25 mg/kg/injection, schedule: Q01DX011 (ip), vehicle: saline, higher = larger tumour) 97 % of control. The T/C (endpoint: mean tumor weight, dose: 12.5 mg/kg/injection, schedule: Q01DX010 (ip), vehicle: saline, higher = larger tumour) was 67 % of control; the T/C (endpoint: mean tumor weight, dose: 12.5 mg/kg/injection, schedule: Q01DX011 (ip), vehicle: saline, higher = larger tumour) is 103 % of control; the T/C (endpoint: mean tumor weight, dose: 25.0 mg/kg/injection, schedule: Q01DX010 (ip), vehicle: saline, higher = larger tumour) was 82 % of control; the T/C (endpoint: mean tumor weight, dose: 50.0 mg/kg/injection, schedule: Q01DX010 (ip), vehicle: saline, higher = larger tumour) is 104 % of control; the T/C (endpoint: mean tumor weight, dose: 100.0 mg/kg/injection, schedule: Q01DX010 (ip), vehicle: saline, higher = larger tumour) is 83 % of control.

For `COc1cc(O)c2c(c1)C(=O)c1cc3c(c(O)c1C2=O)C(O)C(OC)C(C)(O)C3=O` (centres undefined), the T/C runs as follows: (endpoint: median survival time, dose: 12.5 mg/kg/injection, schedule: Q01DX009 (ip), vehicle: water, higher = longer survival) 109 % of control; under setting [1], 95 % of control; (endpoint: median survival time, dose: 25.0 mg/kg/injection, schedule: Q01DX009 (ip), vehicle: water, higher = longer survival) 89 % of control; under setting [2], 103 % of control; (endpoint: median survival time, dose: 50.0 mg/kg/injection, schedule: Q01DX009 (ip), vehicle: water, higher = longer survival) 124 % of control; under setting [3], 100 % of control. The T/C was 103 % of control (endpoint: median survival time, dose: 100.0 mg/kg/injection, schedule: Q01DX009 (ip), vehicle: water, higher = longer survival) and 90 % of control (endpoint: median survival time, dose: 200.0 mg/kg/injection, schedule: Q01DX009 (ip), vehicle: water, higher = longer survival).

In the case of `S=P(N1CC1)(N1CC1)N1CC1`, the T/C by setting is: (endpoint: mean tumor weight, dose: 0.75 mg/kg/injection, schedule: Q01DX011 (ip), vehicle: water, higher = larger tumour) 79 % of control; (endpoint: mean tumor weight, dose: 1.5 mg/kg/injection, schedule: Q01DX011 (ip), vehicle: water, higher = larger tumour) 81 % of control; (endpoint: mean tumor weight, dose: 3.0 mg/kg/injection, schedule: Q01DX011 (ip), vehicle: water, higher = larger tumour) 44 % of control; (endpoint: mean tumor weight, dose: 6.0 mg/kg/injection, schedule: Q01DX011 (ip), vehicle: water, higher = larger tumour) 21 % of control; (endpoint: median survival time, dose: 0.5 mg/kg/injection, schedule: Q01DX009 (ip), vehicle: saline, higher = longer survival) 103 % of control; (endpoint: median survival time, dose: 1.0 mg/kg/injection, schedule: Q01DX009 (ip), vehicle: saline, higher = longer survival) 100 % of control. Also, the T/C is 110 % of control (endpoint: median survival time, dose: 1.0 mg/kg/injection, schedule: Q02DX009 (ip), vehicle: saline, higher = longer survival); 103 % of control (endpoint: median survival time, dose: 1.5 mg/kg/injection, schedule: Q01DX009 (ip), vehicle: Klucel (hydroxypropylcellulose) (HPC), higher = longer survival); 100 % of control (endpoint: median survival time, dose: 2.0 mg/kg/injection, schedule: Q01DX009 (ip), vehicle: saline, higher = longer survival); 98 % of control (endpoint: median survival time, dose: 2.0 mg/kg/injection, schedule: Q02DX009 (ip), vehicle: saline, higher = longer survival); 113 % of control (endpoint: median survival time, dose: 3.0 mg/kg/injection, schedule: Q01DX009 (ip), vehicle: Klucel (hydroxypropylcellulose) (HPC), higher = longer survival); 86 % of control (endpoint: median survival time, dose: 4.0 mg/kg/injection, schedule: Q01DX009 (ip), vehicle: saline, higher = longer survival). The T/C (endpoint: median survival time, dose: 4.0 mg/kg/injection, schedule: Q02DX009 (ip), vehicle: saline, higher = longer survival) was 102 % of control and the T/C (endpoint: median survival time, dose: 8.0 mg/kg/injection, schedule: Q02DX009 (ip), vehicle: saline, higher = longer survival) was 94 % of control.

For the origin of these results see PubChem BioAssay AID270 (DTP/NCI, 2004).
